Earlier results in patent publication US20080254117A1, “PROCESS FOR PREPARING PRAMIPEXOLE DIHYDROCHLORIDE TABLETS” (priority 2007, published 2008).
Where a name gives a salt, the structure may show the parent alone.

How the values were obtained:
[1] = not given; remark: listed apart in the source

SMILES | solubility in buffer media (between pH 2 and pH 7.4) | Water solubility (water) | light sensitivity in solution ([1]; in solution) | stability in the solid state ([1]; solid state)
CCCN[C@H]1CCc2nc(N)sc2C1 [Pramipexole dihydrochloride monohydrate, pramipexole dihydrochloride monohydrate] | above 10 mg/mL | more than 20 mg/mL |  | 
CCCN[C@H]1CCc2nc(N)sc2C1 [Pramipexole, (S)-2-amino-4,5,6,7-tetrahydro-6-(propylamino)benzothiazole] |  |  | light sensitive | very stable in the solid state
